This is an account of results in patent publication US9133158B2, “Bicyclic dihydroisoquinoline-1-one derivatives” (Hoffmann-La Roche Inc., priority 2011, dated 2015).

The target in one test is T1, human CYP11B1 (Homo sapiens, UniProt P15538).
T1 construct: expressed in transfected cells
T1 sequence (P15538 25-503): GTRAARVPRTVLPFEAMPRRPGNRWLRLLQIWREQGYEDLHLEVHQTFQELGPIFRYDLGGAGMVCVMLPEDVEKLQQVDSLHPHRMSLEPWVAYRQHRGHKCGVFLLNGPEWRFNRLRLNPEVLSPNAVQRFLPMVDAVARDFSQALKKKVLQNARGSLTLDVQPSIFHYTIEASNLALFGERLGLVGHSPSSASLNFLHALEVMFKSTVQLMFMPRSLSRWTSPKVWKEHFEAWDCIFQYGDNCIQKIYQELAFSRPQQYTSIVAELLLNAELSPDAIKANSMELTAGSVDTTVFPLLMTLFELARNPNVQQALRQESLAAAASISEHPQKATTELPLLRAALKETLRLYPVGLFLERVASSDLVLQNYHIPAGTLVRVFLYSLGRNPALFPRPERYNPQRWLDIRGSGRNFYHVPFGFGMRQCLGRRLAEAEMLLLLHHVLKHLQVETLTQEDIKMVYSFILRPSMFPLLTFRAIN
Briefly: G-402 cellular enzyme assay, human CYP11B1 (cortisol release, HTRF). Type of test: cell-based. The following applies: G-402 cells, 1 μM Deoxycortisol. The essentials: (§1)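 G-402 cells stably expressing human CYP11B1 or CYP11B2, in DMEM/F12 with 2.5% charcoal-treated FCS, were incubated 16 h with test compound and substrate (1 μM 11-deoxycortisol for CYP11B1; 1 μM deoxycorticosterone for CYP11B2). Cortisol or aldosterone in supernatant was quantified by HTRF; EC50 from 4-parameter MMF fit.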
For orientation: TR-FRET usually uses a lanthanide donor and a delayed reading to cut background.

The next test concerns the target T2, human CYP11B2 (Homo sapiens, UniProt P19099).
T2 construct: expressed in transfected cells
T2 sequence (P19099 25-503): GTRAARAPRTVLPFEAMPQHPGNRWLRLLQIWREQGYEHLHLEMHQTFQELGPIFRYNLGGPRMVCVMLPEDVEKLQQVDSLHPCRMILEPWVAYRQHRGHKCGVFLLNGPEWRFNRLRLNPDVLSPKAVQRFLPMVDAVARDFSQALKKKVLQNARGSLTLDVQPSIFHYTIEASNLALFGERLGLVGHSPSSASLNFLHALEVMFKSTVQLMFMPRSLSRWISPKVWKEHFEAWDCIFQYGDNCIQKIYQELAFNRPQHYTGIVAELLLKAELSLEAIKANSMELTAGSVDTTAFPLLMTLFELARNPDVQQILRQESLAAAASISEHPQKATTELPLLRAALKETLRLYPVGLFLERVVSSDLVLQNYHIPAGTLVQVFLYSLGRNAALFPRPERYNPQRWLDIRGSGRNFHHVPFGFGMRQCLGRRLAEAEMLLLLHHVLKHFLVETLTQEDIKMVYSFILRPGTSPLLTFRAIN
Nature of the test: G-402 cellular enzyme assay, human CYP11B2 (aldosterone release, HTRF). As to conditions: G-402 cells, 1 μM Deoxycorticosterone. Type of test: cell-based. The essentials:
as §1

For orientation: EC50 means the midpoint of the concentration-response curve. On to `CC(c1cncc(N2CCc3cc(Cl)ccc3C2=O)c1)N1CCCC1=O` (stereo not drawn) [Example 274, 6-Chloro-2-{5-[1-(2-oxo-pyrrolidin-1-yl)-ethyl]-pyridin-3-yl}-3,4-dihydro-2H-isoquinolin-1-one], for which the figures for the 50% effective concentration (EC50) on human CYP11B1 and at human CYP11B2 were 1050 nM and 128 nM, respectively.

On to `O=C(c1cncc(N2CCc3cc(Cl)ccc3C2=O)c1)N1CCC(O)C1` (stereo not drawn) [Example 40, 6-Chloro-2-[5-(3-hydroxy-pyrrolidine-1-carbonyl)-pyridin-3-yl]-3,4-dihydro-2H-isoquinolin-1-one], for which the 50% effective concentration (EC50) at human CYP11B1 was found to be 10500 nM; on human CYP11B2, 1680 nM.

Turning to `Cc1nccn1Cc1cncc(N2CCc3cc(Cl)ccc3C2=O)c1` [Example 142, 6-Chloro-2-[5-(2-methyl-imidazol-1-ylmethyl)-pyridin-3-yl]-3,4-dihydro-2H-isoquinolin-1-one], the EC50 at human CYP11B1 was 981 nM; on human CYP11B2, 80.2 nM.

For the compound `CC[C@H]1c2cc(Cl)ccc2C(=O)N1c1cncc2c1CC[C@H]2NS(C)(=O)=O` (single isomer, unassigned) [Example 368, N-[(R or S)-4-((S or R)-5-Chloro-3-ethyl-1-oxo-1,3-dihydro-isoindol-2-yl)-6,7-dihydro-5H-[2]pyrindin-7-yl]-methanesulfonamide], the values for the 50% effective concentration (EC50) at human CYP11B1 and at human CYP11B2 were 723 nM and 12.1 nM, respectively.

As to `O=C1c2ccc(Cl)c(Cl)c2CCN1c1cccnc1` [Example 95, 5,6-Dichloro-2-pyridin-3-yl-3,4-dihydro-2H-isoquinolin-1-one], the EC50 worked out at 10300 nM at human CYP11B1 and 327 nM at human CYP11B2.

For `CCC(=O)N[C@@H]1CCCc2c1cncc2N1C(=O)c2ccc(Cl)cc2[C@H]1C` (single isomer, unassigned) [Example 361, N-[(R or S)-4-((R or S)-5-Chloro-3-methyl-1-oxo-1,3-dihydro-isoindol-2-yl)-5,6,7,8-tetrahydro-isoquinolin-8-yl]-propionamide], the EC50 was found to be 9410 nM at human CYP11B1 and 65.6 nM on human CYP11B2.

With `COc1ccc2c(n1)C(C)(C)N(c1cncc(CNc3cc[nH]n3)c1)C2=O` [Example 384, 2-Methoxy-7,7-dimethyl-6-{5-[(1H-pyrazol-3-ylamino)-methyl]-pyridin-3-yl}-6,7-dihydro-pyrrolo[3,4-b]pyridin-5-one], the EC50 was determined as 3160 nM on human CYP11B1 and 24 nM at human CYP11B2.

On to `O=C1c2cc(F)c(Cl)cc2CCN1c1cccnc1` [Example 101, 6-Chloro-7-fluoro-2-pyridin-3-yl-3,4-dihydro-2H-isoquinolin-1-one], for which the concentration for a half-maximal effect (EC50) at human CYP11B1 was 3540 nM; at human CYP11B2, 104 nM.

Regarding `CC(=O)NC1CCCc2c1cncc2N1CCc2cc(Cl)ccc2C1=O` (single isomer, unassigned) [Example 321, N-((S or R)-6-Chloro-1-oxo-3,4,5′,6′,7′,8′-hexahydro-1H-[2,4′]biisoquinolinyl-8′-yl)-acetamide], the EC50 worked out at 3990 nM on human CYP11B1 and 55.6 nM at human CYP11B2.

Turning to `CCC1c2cc(Cl)ccc2C(=O)N1c1cncc(OC)c1` (stereo not drawn) [Example 127, 5-Chloro-3-ethyl-2-(5-methoxy-pyridin-3-yl)-2,3-dihydro-isoindol-1-one], the figures for the EC50 on human CYP11B1 and on human CYP11B2 were 266 nM and 54.5 nM, respectively.

Consider `O=C1c2ccc(Cl)cc2CCN1c1cncc2ccccc12` [Example 73, 6-Chloro-3,4-dihydro-[2,4′]biisoquinolinyl-1-one], for which the EC50 at human CYP11B1 came out at 251 nM; at human CYP11B2 it was 13.5 nM.

Turning to `O=C1c2ccc(Cl)cc2CCN1c1cncc(CN2CCOCC2)c1` [Example 154, 6-Chloro-2-(5-morpholin-4-ylmethyl-pyridin-3-yl)-3,4-dihydro-2H-isoquinolin-1-one], the EC50 came out at 193 nM on human CYP11B1 and 74.7 nM at human CYP11B2.

As for `CN(C)C(=O)c1cncc(N2CCc3cc(Cl)ccc3C2=O)c1` [Example 41, 5-(6-Chloro-1-oxo-3,4-dihydro-1H-isoquinolin-2-yl)-N,N-dimethyl-nicotinamide], the figures for the concentration for a half-maximal effect (EC50) on human CYP11B1 and at human CYP11B2 were 6080 nM and 3750 nM, respectively.

For `CCC1c2cc(Cl)ccc2C(=O)N1c1cncc(CNS(=O)(=O)CC)c1` (single isomer, unassigned) [Example 390, Ethanesulfonic acid [5-((S or R)-5-chloro-3-ethyl-1-oxo-1,3-dihydro-isoindol-2-yl)-pyridin-3-ylmethyl]-amide], the EC50 at human CYP11B1 is 5470 nM; on human CYP11B2, 316 nM.

`CC(C)(O)c1c(F)cncc1N1CCc2cc(Cl)ccc2C1=O` [Example 70, 6-Chloro-2-[5-fluoro-4-(1-hydroxy-1-methyl-ethyl)-pyridin-3-yl]-3,4-dihydro-2H-isoquinolin-1-one]: the results for the EC50 on human CYP11B1 and at human CYP11B2 were 392 nM and 460 nM, respectively.

Consider `O=C1c2ccc(Cl)cc2CCN1c1cncc(N2CCOCC2)c1` [Example 224, 6-Chloro-2-(5-morpholin-4-yl-pyridin-3-yl)-3,4-dihydro-2H-isoquinolin-1-one], for which the 50% effective concentration (EC50) at human CYP11B1 is 293 nM; at human CYP11B2, 37.2 nM.

Regarding `NCc1cncc(N2CCc3cc(Cl)ccc3C2=O)c1` [Example 192, 2-(5-Aminomethyl-pyridin-3-yl)-6-chloro-3,4-dihydro-2H-isoquinolin-1-one], the half-maximal effective concentration (EC50) worked out at 10300 nM at human CYP11B1 and 2200 nM at human CYP11B2.

`CC(=O)N1CCC(c2cncc(N3C(=O)c4ccc(Cl)cc4C3(C)C)c2)CC1` [Example 461, 2-(1′-Acetyl-1′,2′,3′,4′,5′,6′-hexahydro-[3,4′]bipyridinyl-5-yl)-5-chloro-3,3-dimethyl-2,3-dihydro-isoindol-1-one]: the EC50 was 361 nM at human CYP11B1 and 4 nM at human CYP11B2.

Turning to `CCC1c2cc(Cl)ccc2C(=O)N1c1cncc(-c2ccnn2C)c1` (single isomer, unassigned) [Example 428, (R or S)-5-Chloro-3-ethyl-2-[5-(2-methyl-2H-pyrazol-3-yl)-pyridin-3-yl]-2,3-dihydro-isoindol-1-one], the EC50 worked out at 105 nM at human CYP11B1 and 20 nM on human CYP11B2.

Take `CCCc1nccn1Cc1cncc(N2CCc3cc(Cl)ccc3C2=O)c1` [Example 161, 6-Chloro-2-[5-(2-propyl-imidazol-1-ylmethyl)-pyridin-3-yl]-3,4-dihydro-2H-isoquinolin-1-one]: the EC50 is 341 nM at human CYP11B1 and 101 nM on human CYP11B2.

With `COc1cncc(N2CCc3nc(O)ccc3C2=O)c1` [Example 139, 2-Hydroxy-6-(5-methoxy-pyridin-3-yl)-7,8-dihydro-6H-[1,6]naphthyridin-5-one], the EC50 was 11200 nM on human CYP11B1 and 953 nM at human CYP11B2.

In the case of `CCC(=O)NCc1cncc(N2C(=O)c3ccc(Cl)cc3C2(C)C)c1` [Example 397, N-[5-(6-Chloro-1,1-dimethyl-3-oxo-1,3-dihydro-isoindol-2-yl)-pyridin-3-ylmethyl]-propionamide], the values for the EC50 at human CYP11B1 and at human CYP11B2 were 7950 nM and 282 nM, respectively.

Regarding `CC1(C)c2cc(Cl)ccc2C(=O)N1c1cncc(CNC(=O)c2ccncc2Cl)c1` [Example 437, 3-Chloro-N-[5-(6-chloro-1,1-dimethyl-3-oxo-1,3-dihydro-isoindol-2-yl)-pyridin-3-ylmethyl]-isonicotinamide], the figures for the EC50 on human CYP11B1 and at human CYP11B2 were 1640 nM and 77.6 nM, respectively.

For the compound `O=C1c2ccc(Cl)cc2CCN1c1cncc(Cn2ccnn2)c1` [Example 175, 6-Chloro-2-(5-[1,2,3]triazol-1-ylmethyl-pyridin-3-yl)-3,4-dihydro-2H-isoquinolin-1-one], the EC50 on human CYP11B1 was determined as 656 nM; on human CYP11B2, 105 nM.
